Patent publication US8609690B2, “Aryl- and heteroarylcarbonyl derivatives of substituted nortropanes, medicaments containing such compounds and their use” (Boehringer Ingelheim International GmbH, priority 2008, dated 2013)

Target: T1, 11β-HSD 1 (Homo sapiens, UniProt P28845)
T1 construct: detecting cortisol generated from cortisterone by human liver microsomes; from tissue; host or cells: human liver microsomes
Assay: In vitro inhibition of 11β-HSD 1, HTRF detection of cortisol generated by human liver microsomes
Type: biochemical
Details: 1 μM test compound, 100% indicates no inhibition, zero or below zero indicates complete inhibition (relative to carbenoxolone)
Summary of the method: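 Human liver microsomes with test compound were incubated 1 h at 37 °C in Tris buffer, pH 6.0, with 200 μM NADPH and 80 nM cortisone. Cortisol formed was detected by competitive HTRF immunoassay (665/615 nm ratio) and calibrated against a cortisol standard curve. Values are activities at 1 μM compound relative to carbenoxolone, where 100% indicates no inhibition.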

T1 sequence (P28845 whole entry): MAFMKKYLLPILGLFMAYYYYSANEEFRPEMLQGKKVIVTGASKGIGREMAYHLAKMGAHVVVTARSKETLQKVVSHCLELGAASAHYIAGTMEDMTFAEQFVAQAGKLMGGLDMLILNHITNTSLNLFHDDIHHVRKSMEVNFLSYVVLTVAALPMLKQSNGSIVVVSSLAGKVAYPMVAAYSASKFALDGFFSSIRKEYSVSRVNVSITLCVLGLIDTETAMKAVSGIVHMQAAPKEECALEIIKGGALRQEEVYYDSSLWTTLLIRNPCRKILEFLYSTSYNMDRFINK

Compared with NCc1ccc(C2CC3CCC(C2)N3C(=O)c2ccc3c(c2)OCCO3)cc1 (stereo not drawn) [Example 146, [3-(4-Aminomethyl-phenyl)-8-aza-bicyclo[3.2.1]oct-8-yl]-(2,3-dihydro-benzo[1,4]dioxin-6-yl)-methanone], NCc1cccc([C@@H]2C[C@H]3CC[C@@H](C2)N3C(=O)c2ccc3c(c2)OCCO3)c1 [Example 147, exo-[3-(3-Aminomethyl-phenyl)-8-aza-bicyclo[3.2.1]oct-8-yl]-(2,3-dihydro-benzo[1,4]dioxin-6-yl)-methanone] is higher in “Inhibitory activity on 11β-HSD 1, % CTL” value: 96 % CTL for the first, 99 % CTL for the second.

Compared with O=C(c1ccc2c(c1)OCCO2)N1C2CCC1CC(c1ccc(F)c(Cl)c1)C2 (stereo not drawn) [Example 148, [3-(3-Chloro-4-fluoro-phenyl)-8-aza-bicyclo[3.2.1]oct-8-yl]-(2,3-dihydro-benzo[1,4]dioxin-6-yl)-methanone], O=C(c1ccc2c(c1)OCCO2)N1C2CCC1CC(c1ccc(Cl)cc1)C2 (stereo not drawn) [Example 151, [3-(4-Chloro-phenyl)-8-aza-bicyclo[3.2.1]oct-8-yl]-(2,3-dihydro-benzo[1,4]dioxin-6-yl)-methanone] is higher in “Inhibitory activity on 11β-HSD 1, % CTL” value: −48 % CTL for the first, −44 % CTL for the second.

First: NC(=O)c1cccc(C2CC3CCC(C2)N3C(=O)c2ccc3c(c2)OCCO3)c1 (stereo not drawn) [Example 149, 3-[8-(2,3-Dihydro-benzo[1,4]dioxine-6-carbonyl)-8-aza-bicyclo[3.2.1]oct-3-yl]-benzamide]
Second: O=C(O)c1ccc([C@H]2C[C@H]3CC[C@@H](C2)N3C(=O)c2ccc3c(c2)OCCO3)cc1 [Example 158, endo-4-[8-(2,3-Dihydro-enzo[1,4]dioxine-6-carbonyl)-8-aza-bicyclo[3.2.1]oct-3-yl]-benzoic acid]
The “Inhibitory activity on 11β-HSD 1, % CTL” value of the first is lower: 30 % CTL for the first, 86 % CTL for the second.

Going from O=C(c1ccc2c(c1)OCCO2)N1C2CCC1CC(c1cccc(-c3ccccc3)c1)C2 (stereo not drawn) [Example 150, (3-Biphenyl-3-yl-8-aza-bicyclo[3.2.1]oct-8-yl)-(2,3-dihydro-benzo[1,4]dioxin-6-yl)-methanone] to O=C(c1ccc2c(c1)OCCO2)N1[C@@H]2CC[C@H]1C[C@@H](c1ccc3ccccc3c1)C2 [Example 157, endo-(2,3-Dihydro-benzo[1,4]dioxin-6-yl)-(3-naphthalen-2-yl-8-aza-bicyclo[3.2.1]oct-8-yl)-methanone], the “Inhibitory activity on 11β-HSD 1, % CTL” value falls from 62 % CTL to 38 % CTL.

Going from O=C(c1ccc2c(c1)OCCO2)N1[C@@H]2CC[C@H]1C[C@@H](c1ccc(Oc3ccccc3)cc1)C2 [Example 152, endo-(2,3-Dihydro-benzo[1 ,4]dioxin-6-yl)-[3-(4-phenoxy-phenyl)-8-aza-bicyclo[3.2.1]oct-8-yl]-methanone] to O=C(c1ccc2c(c1)OCCO2)N1[C@@H]2CC[C@H]1C[C@@H](c1ccc(Br)cc1)C2 [Example 155, endo-[3-(4-Bromo-phenyl)-8-aza-icyclo[3.2.1]oct-8-yl]-(2,3-dihydro-benzo[1,4]dioxin-6-yl)-methanone], the “Inhibitory activity on 11β-HSD 1, % CTL” value falls from 5 % CTL to −17 % CTL.

Going from O=C(c1ccc2c(c1)OCCO2)N1[C@@H]2CC[C@H]1C[C@@H](c1cccnc1)C2 [Example 153, endo-(2,3-Dihydro-benzo[1,4]dioxin-6-yl)-(3-pyridin-3-yl-8-aza-bicyclo[3.2.1]oct-8-yl)-methanone] to O=C(c1ccc2c(c1)OCCO2)N1[C@@H]2CC[C@H]1C[C@@H](c1ccccc1O)C2 [Example 159, endo-(2,3-Dihydro-benzo[1,4]dioxin-6-yl)-[3-(2-hydroxy-phenyl)-8-aza-bicyclo[3.2.1]oct-8-yl]-methanone], the “Inhibitory activity on 11β-HSD 1, % CTL” value falls from −4 % CTL to −55 % CTL.

First: COC(=O)c1ccc([C@H]2C[C@H]3CC[C@@H](C2)N3C(=O)c2ccc3c(c2)OCCO3)cc1 [Example 154]
Second: COc1ccccc1[C@H]1C[C@H]2CC[C@@H](C1)N2C(=O)c1ccc2c(c1)OCCO2 [Example 156, endo-(2,3-Dihydro-benzo[1,4]dioxin-6-yl)-[3-(2-methoxy-phenyl)-8-aza-bicyclo[3.2.1]oct-8-yl]-methanone]
The “Inhibitory activity on 11β-HSD 1, % CTL” value of the first is higher: 59 % CTL for the first, −13 % CTL for the second.

Going from O=C(c1ccc2c(c1)OCCO2)N1[C@@H]2CC[C@H]1C[C@@H](c1ccc(F)cc1F)C2 [Example 160, endo-[3-(2,4-Difluoro-phenyl)-8-aza-bicyclo[3.2.1]oct-8-yl]-(2,3-dihydro-benzo[1,4]dioxin-6-yl)-methanone] to O=C(c1ccc2c(c1)OCCO2)N1[C@@H]2CC[C@H]1C[C@@H](c1c(F)cccc1F)C2 [Example 161, endo-[3-(2,6-Difluoro-phenyl)-8-aza-bicyclo[3.2.1]oct-8-yl]-(2,3-dihydro-benzo[1,4]dioxin-6-yl)-methanone], the “Inhibitory activity on 11β-HSD 1, % CTL” value falls from −26 % CTL to −30 % CTL.

Going from Cc1cc(C(F)F)n2nc(C(=O)N3[C@@H]4CC[C@H]3C[C@@H](c3ccc(F)cc3)C4)nc2n1 [Example 162, endo-(7-Difluoromethyl-5-methyl-[1,2,4]triazolo[1,5-a]pyrimidin-2-yl)-[3-(4-fluoro-phenyl)-8-aza-bicyclo[3.2.1]oct-8-yl]-methanone] to Cc1cc(C(=O)N2[C@@H]3CC[C@H]2C[C@@H](c2ccc(F)cc2)C3)cc(C)c1O [Example 164, endo-[3-(4-Fluoro-phenyl)-8-aza-bicyclo[3.2.1]oct-8-yl]-(4-hydroxy-3,5-dimethyl-phenyl)-methanone], the “Inhibitory activity on 11β-HSD 1, % CTL” value falls from 96 % CTL to −29 % CTL.

First: O=C(c1cc(Cl)c(O)c(Cl)c1)N1[C@@H]2CC[C@H]1C[C@@H](c1ccc(F)cc1)C2 [Example 163, endo-(3,5-Dichloro-4-hydroxy-phenyl)-[3-(4-fluoro-phenyl)-8-aza-bicyclo[3.2.1]oct-8-yl]-methanone]
Second: O=C(c1ccc(O)c(Cl)c1)N1[C@@H]2CC[C@H]1C[C@@H](c1ccc(F)cc1)C2 [Example 167, endo-(3-Chloro-4-hydroxy-phenyl)-[3-(4-fluoro-phenyl)-8-aza-bicyclo[3.2.1]oct-8-yl]-methanone]
The “Inhibitory activity on 11β-HSD 1, % CTL” value of the first is higher: −7 % CTL for the first, −22 % CTL for the second.

First: COc1ccc(C(=O)N2[C@@H]3CC[C@H]2C[C@@H](c2ccc(F)cc2)C3)cc1Cl [Example 165, endo-(3-Chloro-4-methoxy-phenyl)-[3-(4-fluoro-phenyl)-8-aza-bicyclo[3.2.1]oct-8-yl]-methanone]
Second: Cc1cc(C(=O)N2[C@@H]3CC[C@H]2C[C@@H](c2ccc(F)cc2)C3)ccc1O [Example 166, endo-[3-(4-Fluoro-phenyl)-8-aza-bicyclo[3.2.1]oct-8-yl]-(4-hydroxy-3-methyl-phenyl)-methanone]
The “Inhibitory activity on 11β-HSD 1, % CTL” value of the first is higher: 2 % CTL for the first, −33 % CTL for the second.

First: COc1c(F)cc(C(=O)N2[C@@H]3CC[C@H]2C[C@@H](c2ccc(F)cc2)C3)cc1F [Example 168, endo-(3,5-Difluoro-4-methoxy-phenyl)-[3-(4-fluoro-phenyl)-8-aza-bicyclo[3.2.1]oct-8-yl]-methanone]
Second: O=C(c1ccc(O)c(F)c1)N1[C@@H]2CC[C@H]1C[C@@H](c1ccc(F)cc1)C2 [Example 169, endo-(3-Fluoro-4-hydroxy-phenyl)-[3-(4-fluoro-phenyl)-8-aza-bicyclo[3.2.1]oct-8-yl]-methanone]
The “Inhibitory activity on 11β-HSD 1, % CTL” value of the first is higher: 6 % CTL for the first, −25 % CTL for the second.
